Assay results taken from patent publication US20210369853A1, “TARGETED PROTEASE DEGRADATION PLATFORM” (EUBULUS BIOTHERAPEUTICS INC., priority 2018, published 2021).
Read-outs that look alike come from different tables or passages of the source.

Experiments:
Format in all cases: cell-based
[1] = test system: Human Monocytic Leukemia MV4-11; assay: Cell proliferation experiment (Alarm blue, 72 h, EC50)
Procedure, shortened: (§1)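 Single-cell suspensions from log-phase cultures are plated, compound in complete medium is added at 5-fold dilution steps (two replicates each), and cells grow for 72 h. Viability is then measured as Alamar blue fluorescence, giving EC50 by sigmoidal fitting.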

[2] = test system: Human cervical adenocarcinoma cells Hela; assay: as above
Procedure, shortened: as §1

[3] = target: T1, BRD4 (Homo sapiens, UniProt O60885); assay: Western blot, protein degradation (DC50)
T1 construct: endogenous in cells
Method: (§2) Cells were treated with the compound for a period of time, after that the cells were collected by centrifugation. After washing with PBS, the cells were lysed by adding RIPA buffer; the cell lysate were added to the loading buffer and then appropriate volume were taken and slowly added to the corresponding wells of the gel plate, and run the SDS-PAGE gel (4%-12%). After running the gel, transferred to the PVDF membrane and sealed with 5% skimmed milk powder at room temperature for 1 hour. The membrane was placed in the primary antibody diluted with 5% skimmed milk powder and shaked slowly overnight at 4° C. After incubation with primary antibody, the membrane was washed 3 times using a TBST shaker; added secondary antibody diluted with 5% skimmed milk powder corresponding to the primary antibody, and shaked slowly at room temperature for 1 hour. After incubation with secondary antibody, the membrane was washed 3 times using the TBST shaker again. The PVDF membrane was flatted in the cassette, the strip was evenly infiltrated with ECL developer solution, and placed in ChemDoc XRS+ gel imager for taking pictures. The intensity of protein bands was analyzed quantitatively using ImageJ software.

[4] = target: T2, PLK1 (Homo sapiens, UniProt P53350); assay: Western blot, protein degradation (DC50)
T2 construct: endogenous in cells
T2 sequence (P53350 whole entry): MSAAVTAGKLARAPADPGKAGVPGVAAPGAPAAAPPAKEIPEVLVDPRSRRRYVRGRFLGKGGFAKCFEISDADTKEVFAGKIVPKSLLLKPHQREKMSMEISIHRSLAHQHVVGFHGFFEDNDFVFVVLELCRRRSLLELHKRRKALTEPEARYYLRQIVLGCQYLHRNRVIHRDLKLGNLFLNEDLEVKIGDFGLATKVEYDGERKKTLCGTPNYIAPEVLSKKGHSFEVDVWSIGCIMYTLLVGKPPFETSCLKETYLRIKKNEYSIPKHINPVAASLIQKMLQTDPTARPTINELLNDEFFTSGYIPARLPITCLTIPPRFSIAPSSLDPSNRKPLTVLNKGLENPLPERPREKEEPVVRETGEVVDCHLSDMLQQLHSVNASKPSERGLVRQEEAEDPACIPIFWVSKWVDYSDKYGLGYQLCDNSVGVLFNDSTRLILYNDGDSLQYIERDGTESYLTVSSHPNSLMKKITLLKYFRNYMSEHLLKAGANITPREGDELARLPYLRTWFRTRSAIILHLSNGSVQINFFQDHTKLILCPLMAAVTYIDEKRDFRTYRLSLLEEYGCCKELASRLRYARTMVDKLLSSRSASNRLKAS
Method: as §2

[5] = test system: Human Colon Cancer HCT-116; assay: Cell proliferation experiment (Alarm blue, 72 h, EC50); details: HCT116 cells
Procedure, shortened: as §1

[6] = test system: Human Small Cell Lung Cancer NCI-H82; assay: as above; details: NCIH82 cells
Procedure, shortened: as §1

[7] = test system: Human Colon Cancer HT-29; assay: as above; details: Homo sapiens; HT-29 cells
Procedure, shortened: as §1

[8] = Homo sapiens, MV4-11, MV4;11 cells
[9] = 6 h, western blot, read-out: BRD4 DC50 (6 h)
[10] = 6 h, western blot, read-out: PLK1 DC50 (6 h)
[11] = 24 h, read-out: BRD4 DC50 (24 h)
[12] = 24 h, read-out: PLK1 DC50 (24 h)

Row | SMILES | EC50 [1, 8] | EC50 ([2]; Homo sapiens) | EC50 ([5]; Homo sapiens, HCT-116) | EC50 ([6]; Homo sapiens, NCI-H82) | other results
1 | CC[C@@H]1c2nncn2-c2cnc(Nc3ccc(C(=O)NCCOCCOCCOCCOCC(=O)N[C@H](C(=O)N4C[C@H](O)C[C@H]4C(=O)NCc4ccc(-c5scnc5C)cc4)C(C)(C)C)cc3OC)nc2N1C1CCCC1 [UB-180523] | 0.01 to 0.1 µM | > 1 µM |  |  | DC50 [3, 9]: > 1000 nM; DC50 [4, 10]: > 1000 nM
2 | CC[C@@H]1c2c(C#N)ncn2-c2cnc(Nc3ccc(C(=O)NCCOCCOCCOCCOCC(=O)N[C@H](C(=O)N4C[C@H](O)C[C@H]4C(=O)NCc4ccc(-c5scnc5C)cc4)C(C)(C)C)cc3OC)nc2N1C1CCCC1 [UB-180525] | 0.01 to 0.1 µM | > 1 µM |  |  | DC50 [3, 9]: > 1000 nM; DC50 [4, 10]: > 1000 nM
3 | CC[C@@H]1c2c(C#N)ncn2-c2cnc(Nc3ccc(C(=O)NCCOCCOCCOCCC(=O)N[C@H](C(=O)N4C[C@H](O)C[C@H]4C(=O)NCc4ccc(-c5scnc5C)cc4)C(C)(C)C)cc3OC)nc2N1C1CCCC1 [UB-180529] | 0.01 to 0.1 µM | > 1 µM |  |  | DC50 [3, 9]: > 1000 nM; DC50 [4, 10]: > 1000 nM
4 | CC[C@@H]1c2c(C#N)ncn2-c2cnc(Nc3ccc(C(=O)NCCOCCOCCOCCOCCC(=O)N[C@H](C(=O)N4C[C@H](O)C[C@H]4C(=O)NCc4ccc(-c5scnc5C)cc4)C(C)(C)C)cc3OC)nc2N1C1CCCC1 [UB-180552] | 0.1 to 1 µM | > 1 µM |  |  | 
5 | CC[C@@H]1c2nncn2-c2cnc(Nc3ccc(C(=O)NCCOCCOCCOCCOCCC(=O)N[C@H](C(=O)N4C[C@H](O)C[C@H]4C(=O)NCc4ccc(-c5scnc5C)cc4)C(C)(C)C)cc3OC)nc2N1C1CCCC1 [UB-180553] | 0.1 to 1 µM | > 1 µM |  |  | 
6 | CC[C@@H]1c2nncn2-c2cnc(Nc3ccc(C(=O)NCCCCOCC(=O)N[C@H](C(=O)N4C[C@H](O)C[C@H]4C(=O)NCc4ccc(-c5scnc5C)cc4)C(C)(C)C)cc3OC)nc2N1C1CCCC1 [UB-180555] | 0.01 to 0.1 µM | > 1 µM |  |  | 
7 | CC[C@@H]1c2nncn2-c2cnc(Nc3ccc(C(=O)NCCOCCOCC(=O)Nc4cccc5c4CN(C4CCC(=O)NC4=O)C5=O)cc3OC)nc2N1C1CCCC1 (stereo partly drawn) [UB-180556] | > 1 µM | > 1 µM |  |  | 
8 | CC[C@@H]1c2c(C#N)ncn2-c2cnc(Nc3ccc(C(=O)NCCOCCOCC(=O)Nc4cccc5c4CN(C4CCC(=O)NC4=O)C5=O)cc3OC)nc2N1C1CCCC1 (stereo partly drawn) [UB-180557] | 0.1 to 1 µM | > 1 µM |  |  | 
9 | CC[C@@H]1c2c(C#N)ncn2-c2cnc(Nc3ccc(C(=O)NCCOCCOCCOCCOCC(=O)Nc4cccc5c4CN(C4CCC(=O)NC4=O)C5=O)cc3OC)nc2N1C1CCCC1 (stereo partly drawn) [UB-180560] | 0.1 to 1 µM | > 1 µM |  |  | 
10 | CC[C@@H]1c2nncn2-c2cnc(Nc3ccc(C(=O)NCCOCCOCCOCCOCC(=O)Nc4cccc5c4CN(C4CCC(=O)NC4=O)C5=O)cc3OC)nc2N1C1CCCC1 (stereo partly drawn) [UB-180561] |  |  |  |  | EC50 ([1]; MV4;11 cells): > 1 µM; EC50 [2]: > 1 µM
11 | CC[C@@H]1c2nncn2-c2cnc(Nc3ccc(C(=O)NCCOCCOCCOCCOCCC(=O)Nc4cccc5c4CN(C4CCC(=O)NC4=O)C5=O)cc3OC)nc2N1C1CCCC1 (stereo partly drawn) [UB-180562] | > 1 µM | > 1 µM |  |  | 
12 | CC[C@@H]1c2c(C#N)ncn2-c2cnc(Nc3ccc(C(=O)NCCOCCOCC(=O)N[C@H](C(=O)N4C[C@H](O)C[C@H]4C(=O)NCc4ccc(-c5scnc5C)cc4)C(C)(C)C)cc3OC)nc2N1C1CCCC1 [UB-180563] | 0.1 to 1 µM | > 1 µM |  |  | 
13 | CC[C@@H]1c2nncn2-c2cnc(Nc3ccc(C(=O)NCCOCCOCC(=O)N[C@H](C(=O)N4C[C@H](O)C[C@H]4C(=O)NCc4ccc(-c5scnc5C)cc4)C(C)(C)C)cc3OC)nc2N1C1CCCC1 [UB-180564] | 0.1 to 1 µM | > 1 µM |  |  | 
14 | CC[C@@H]1C(=O)N(C)c2cnc(Nc3ccc(C(=O)NCCOCCOCCOCC(=O)Nc4cccc5c4CN(C4CCC(=O)NC4=O)C5=O)cc3OC)nc2N1Cc1ccc(Br)cc1 (stereo partly drawn) [UB-180566] | < 0.01 µM |  | 0.1 to 1 µM | > 1 µM | DC50 [3, 9]: < 10 nM; DC50 [4, 10]: < 10 nM
15 | CC[C@@H]1C(=O)N(C)c2cnc(Nc3ccc(C(=O)NCCOCCNCCCC(=O)Nc4cccc5c4CN(C4CCC(=O)NC4=O)C5=O)cc3OC)nc2N1Cc1ccc(Br)cc1 (stereo partly drawn) [UB-180625] | 0.01 to 0.1 µM |  | > 1 µM | > 1 µM | DC50 [3, 11]: < 10 nM; DC50 [4, 12]: < 10 nM
16 | CC[C@@H]1C(=O)N(C)c2cnc(Nc3ccc(C(=O)NCCOCCNCCCC(=O)Nc4cccc5c4CN(C4CCC(=O)NC4=O)C5=O)cc3OC)nc2N1Cc1ccc(Br)cc1 (stereo partly drawn) [UB-180626] |  |  |  |  | EC50 [5]: > 1 µM; EC50 ([1]; MV4;11 cells): 0.01 to 0.1 µM; EC50 [6]: > 1 µM
17 | CC[C@@H]1C(=O)N(C)c2cnc(Nc3ccc(C(=O)NCCCNCCCCCCC(=O)Nc4cccc5c4CN(C4CCC(=O)NC4=O)C5=O)cc3OC)nc2N1Cc1ccc(Br)cc1 (stereo partly drawn) [UB-180627] | 0.01 to 0.1 µM |  | > 1 µM | > 1 µM | DC50 [3, 11]: < 10 nM; DC50 [4, 12]: 100 to 1000 nM
18 | CC[C@@H]1C(=O)N(C)c2cnc(Nc3ccc(C(=O)NCCCNCCCCCCCC(=O)Nc4cccc5c4CN(C4CCC(=O)NC4=O)C5=O)cc3OC)nc2N1Cc1ccc(Br)cc1 (stereo partly drawn) [UB-180628] | 0.01 to 0.1 µM |  | > 1 µM | > 1 µM | 
19 | CC[C@@H]1C(=O)N(C)c2cnc(Nc3ccc(C(=O)NCCCNCCCC(=O)Nc4cccc5c4CN(C4CCC(=O)NC4=O)C5=O)cc3OC)nc2N1Cc1ccc(Br)cc1 (stereo partly drawn) [UB-180637] | 0.01 to 0.1 µM |  | > 1 µM | > 1 µM | 
20 | CC[C@@H]1C(=O)N(C)c2cnc(Nc3ccc(C(=O)NCCCNCCCCC(=O)Nc4cccc5c4CN(C4CCC(=O)NC4=O)C5=O)cc3OC)nc2N1Cc1ccc(Br)cc1 (stereo partly drawn) [UB-180638] | 0.01 to 0.1 µM |  | > 1 µM | > 1 µM | 
21 | CC[C@@H]1C(=O)N(C)c2cnc(Nc3ccc(C(=O)NCCCNCCCCCC(=O)Nc4cccc5c4CN(C4CCC(=O)NC4=O)C5=O)cc3OC)nc2N1Cc1ccc(Br)cc1 (stereo partly drawn) [UB-180639] | 0.01 to 0.1 µM |  | > 1 µM | > 1 µM | 
22 | CC[C@@H]1C(=O)N(C)c2cnc(Nc3ccc(C(=O)NCCOCCNCCCCCC(=O)Nc4cccc5c4CN(C4CCC(=O)NC4=O)C5=O)cc3OC)nc2N1Cc1ccc(Br)cc1 (stereo partly drawn) [UB-180643] | 0.01 to 0.1 µM |  | 0.1 to 1 µM | > 1 µM | 
23 | CC[C@@H]1C(=O)N(C)c2cnc(Nc3ccc(C(=O)NCCOCCOCCOCCNCCCCCC(=O)Nc4cccc5c4CN(C4CCC(=O)NC4=O)C5=O)cc3OC)nc2N1Cc1ccc(Br)cc1 (stereo partly drawn) [UB-180644] | 0.01 to 0.1 µM |  | > 1 µM | > 1 µM | 
24 | CC[C@@H]1C(=O)N(C)c2cnc(Nc3ccc(C(=O)NCCOCCNCCCCC(=O)Nc4cccc5c4CN(C4CCC(=O)NC4=O)C5=O)cc3OC)nc2N1Cc1ccc(Br)cc1 (stereo partly drawn) [UB-180645] | 0.01 to 0.1 µM |  | 0.1 to 1 µM | > 1 µM | 
25 | CC[C@@H]1C(=O)N(C)c2cnc(Nc3ccc(C(=O)NCc4cn(CCNCC(=O)Nc5cccc6c5CN(C5CCC(=O)NC5=O)C6=O)nn4)cc3OC)nc2N1C1CCCC1 (stereo partly drawn) [UB-180691] | 0.01 to 0.1 µM |  |  |  | EC50 [7]: 0.1 to 1 µM
26 | CC[C@@H]1C(=O)N(C)c2cnc(Nc3ccc(C(=O)NCc4cn(CCOCCNCCC(=O)Nc5cccc6c5CN(C5CCC(=O)NC5=O)C6=O)nn4)cc3OC)nc2N1C1CCCC1 (stereo partly drawn) [UB-180707] | 0.01 to 0.1 µM |  |  |  | EC50 [7]: 0.1 to 1 µM
27 | CC[C@@H]1C(=O)N(C)c2cnc(Nc3ccc(C(=O)NCc4cn(CCNCCOCC(=O)Nc5cccc6c5CN(C5CCC(=O)NC5=O)C6=O)nn4)cc3OC)nc2N1C1CCCC1 (stereo partly drawn) [UB-180719] | 0.01 to 0.1 µM |  |  |  | EC50 [7]: 0.1 to 1 µM; DC50 ([3]; 6 h, read-out: BRD4 DC50 (nM) (6 h)): < 10 nM; DC50 ([3]; 24 h, read-out: BRD4 DC50 (nM) (24 h)): < 10 nM; DC50 ([4]; 6 h, read-out: PLK1 DC50 (nM) (6 h)): 10 to 100 nM; DC50 ([4]; 24 h, read-out: PLK1 DC50 (nM) (24 h)): < 10 nM
